Experiment [1] addresses T1, SET Human Serotonin Transporter (Homo sapiens, UniProt P31645).
T1 construct: Cerep (Eurofins Discovery Services) 439
Description: 5-HT inhibition assay: Cerep SET Human Serotonin Transporter Binding (Antagonist Radioligand) Assay. Particulars: test compound 10 μM, ligand [3H]imipramine 2 nM, 60 min at RT. How it is done:
The 5-HT inhibition assay was performed according to the Cerep SET Human Serotonin Transporter Binding (Antagonist Radioligand) Assay, such as the assay described in www.eurofinsdiscoveryservices.com/catalogmanagement/viewitem//439, accessed Jul. 22, 2019. In some experiments, the assay information is as shown below:
Ligand concentration: 2 nM; Non specific: imipramine (10 μM);
Incubation: 60 min at RT;
Control inhibitor: imipramine; and Test compound concentration: 10 μM. Exemplary results are presented as 5-HT % inhibition at 10 μM of compound for compounds of the disclosure in Table 1 and for comparator compounds in Table 2.

The next experiment addresses T2, CDK7: cyclin H and MNAT1 (Homo sapiens, UniProt P50613).
T2 construct: purchased Invitrogen
Description: Invitrogen CDK7 assay (kinase inhibition). It is filed as biochemical. Particulars: co-factors cyclin H and MNAT1, read-out: IC50 against CDK7. How it is done: Compounds were assayed using Invitrogen CDK7 assay against a variety of kinases. Exemplary results are presented as IC50 values for compounds of the disclosure in Table 1 and for comparator compounds in Table 2. In Tables 1 and 2, “A” represents an IC50 value of less than 100 nM, “B” represents an IC50 value of greater than or equal to 100 nM and less than 1 μM, and “C” represents an IC50 value of greater than or equal to 1 μM. The co-factors used for each kinase in the assays were as follows: CDK7: cyclin H and MNAT1; CDK2: cyclin A; CDK9: cyclin T1.

Setting [2] is: Table 1, compounds of the disclosure.

The record followed here is patent publication US20230242534A9, “INHIBITORS OF CYCLIN-DEPENDENT KINASE 7 AND USES THEREOF” (Dana-Farber Cancer Institute, Inc., priority 2019, published 2023).

A word on the inhibition: it is the share of the control response that was lost under treatment. A higher inhibition goes with strong suppression. The term IC50 denotes the midpoint of a concentration-inhibition curve.

Structures are written as SMILES. Like-named read-outs stand apart in the source and are kept apart here. Some results are limits rather than exact numbers.

T2 sequence (P50613 whole entry): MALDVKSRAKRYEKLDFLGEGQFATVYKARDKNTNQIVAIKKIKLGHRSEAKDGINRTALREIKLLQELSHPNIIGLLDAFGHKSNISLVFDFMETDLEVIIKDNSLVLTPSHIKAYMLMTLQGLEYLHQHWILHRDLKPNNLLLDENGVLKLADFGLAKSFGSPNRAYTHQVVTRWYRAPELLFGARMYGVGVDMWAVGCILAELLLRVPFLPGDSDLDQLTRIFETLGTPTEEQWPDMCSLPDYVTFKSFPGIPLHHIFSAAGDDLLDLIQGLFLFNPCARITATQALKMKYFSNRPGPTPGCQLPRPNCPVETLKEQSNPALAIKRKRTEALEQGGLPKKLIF
T2 sequence (P51946 whole entry partner): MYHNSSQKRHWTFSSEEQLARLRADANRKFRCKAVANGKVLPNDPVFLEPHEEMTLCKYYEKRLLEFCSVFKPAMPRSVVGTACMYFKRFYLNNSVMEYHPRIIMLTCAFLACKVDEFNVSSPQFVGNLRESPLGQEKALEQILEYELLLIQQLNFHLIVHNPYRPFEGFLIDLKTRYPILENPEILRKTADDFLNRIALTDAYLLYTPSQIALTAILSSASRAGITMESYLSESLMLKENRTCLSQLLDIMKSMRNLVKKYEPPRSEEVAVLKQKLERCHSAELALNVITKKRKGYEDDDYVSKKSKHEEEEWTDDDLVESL
T2 sequence (P51948 whole entry partner): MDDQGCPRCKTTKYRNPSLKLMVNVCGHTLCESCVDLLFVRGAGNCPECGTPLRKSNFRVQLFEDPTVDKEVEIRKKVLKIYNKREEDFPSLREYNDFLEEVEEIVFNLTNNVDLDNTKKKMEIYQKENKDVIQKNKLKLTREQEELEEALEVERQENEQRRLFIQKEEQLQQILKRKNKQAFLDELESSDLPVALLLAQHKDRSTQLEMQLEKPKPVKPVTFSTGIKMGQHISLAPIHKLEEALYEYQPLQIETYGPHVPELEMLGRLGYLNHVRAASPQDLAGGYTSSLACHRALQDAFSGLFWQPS
T1 sequence (P31645 whole entry): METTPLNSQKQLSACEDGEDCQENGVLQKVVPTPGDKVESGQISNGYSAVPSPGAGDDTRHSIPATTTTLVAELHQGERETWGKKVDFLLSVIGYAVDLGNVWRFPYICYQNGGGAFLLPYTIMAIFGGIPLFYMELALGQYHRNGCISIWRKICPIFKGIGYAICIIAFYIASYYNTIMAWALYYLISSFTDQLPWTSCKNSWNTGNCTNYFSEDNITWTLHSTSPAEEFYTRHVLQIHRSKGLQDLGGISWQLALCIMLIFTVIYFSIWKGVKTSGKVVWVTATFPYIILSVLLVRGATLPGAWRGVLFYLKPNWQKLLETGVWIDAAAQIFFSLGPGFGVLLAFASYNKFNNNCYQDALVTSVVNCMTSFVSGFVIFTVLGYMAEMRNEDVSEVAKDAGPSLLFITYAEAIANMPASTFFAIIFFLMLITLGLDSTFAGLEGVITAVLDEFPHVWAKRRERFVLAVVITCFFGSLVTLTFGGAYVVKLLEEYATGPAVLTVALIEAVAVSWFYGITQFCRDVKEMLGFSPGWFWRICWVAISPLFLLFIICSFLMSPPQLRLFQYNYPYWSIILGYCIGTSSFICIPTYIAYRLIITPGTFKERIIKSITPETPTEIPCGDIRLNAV

As for `C=CC(=O)Nc1cccc(C(=O)Nc2ccc(Nc3n[nH]c4c3CN(C(=O)N[C@H](CN(C)C)c3ccccc3)C4(C)C)cc2)c1` [Compound C-1], at 10 µM the inhibition in experiment [1] (Table 2, comparator compounds) was 98.3%. In addition, on CDK7: cyclin H and MNAT1 (Table 2, comparator compounds), the IC50 is less than 100 nM.
On the same counts, the results for `C=CC(=O)Nc1ccc(C(=O)Nc2n[nH]c3c2CN(C(=O)N[C@H](CN(C)C)c2ccccc2)C32CC2)cc1` [Compound C-2] are 95.3% and less than 100 nM.
On the same counts, the results for `C=CC(=O)Nc1cccc(Nc2n[nH]c3c2CN(C(=O)N[C@H](CN(C)C)c2ccccc2)C3(C)C)c1` [Compound C-3] are 98.2% and less than 100 nM.
On the same counts, the results for `C=CC(=O)Nc1ccc(C(=O)N2CCC(Nc3n[nH]c4c3CN(C(=O)N[C@H](CN(C)C)c3ccccc3)C4(C)C)CC2)cc1` [Compound C-4] are 96.4% and less than 100 nM.
In experiment [1] (Table 2, comparator compounds), `C=CC(=O)N1CCC[C@H](C(=O)Nc2n[nH]c3c2CN(C(=O)N[C@H](CN(C)C)c2ccccc2)C3(C)C)C1` [Compound C-5] had an inhibition at 10 µM of 94.3%. Also, at CDK7: cyclin H and MNAT1 (Table 2, comparator compounds), the IC50 is less than 100 nM.
On the same counts, the results for `C=CC(=O)Nc1ccc(C(=O)Nc2cccc(C(=O)Nc3n[nH]c4c3CN(C(=O)N[C@H](CN(C)C)c3ccccc3)C4(C)C)c2)cc1` [Compound C-6] are 99.6% and less than 100 nM.
Consider `C=CC(=O)Nc1ccc(C(=O)Nc2n[nH]c3c2CN(C(=O)N[C@H](CN(C)C)c2ccccc2)[C@@H]3C(C)C)cc1` [Compound C-7], for which the inhibition at 10 µM in experiment [1] (Table 2, comparator compounds) was determined as 74.5%. On CDK7: cyclin H and MNAT1 (Table 2, comparator compounds), the IC50 was less than 100 nM.
On the same counts, the results for `C=CC(=O)Nc1ccc(C(=O)Nc2cccc(Nc3n[nH]c4c3CN(C(=O)N[C@H](CN(C)C)c3ccccc3)C4(C)C)c2)cc1` [Compound C-8] are 98% and less than 100 nM.
On the same counts, the results for `C=CC(=O)Nc1ccc(C(=O)Nc2n[nH]c3c2CN(C(=O)N[C@H](CN(C)C)c2ccccc2)C3(C)C)nc1` [Compound C-10] are 98.3% and less than 100 nM.
In turn, `C=CC(=O)Nc1ccc(C(=O)Nc2nn(C)c3c2CN(C(=O)N[C@H](CN(C)C)c2ccccc2)C3(C)C)cc1` [Compound I-1, (S)-3-(4-acrylamidobenzamido)-N-(2-(dimethylamino)-1-phenylethyl)-1,6,6-trimethyl-4,6-dihydropyrrolo[3,4-c]pyrazole-5(1H)-carboxamide] had an inhibition at 10 µM in experiment [1] (Table 1) of 26.8%. The IC50 at CDK7: cyclin H and MNAT1 (setting [2]) was less than 100 nM.
As to `C=CC(=O)Nc1ccc(C(=O)Nc2nn(C(F)F)c3c2CN(C(=O)N[C@H](CN(C)C)c2ccccc2)C3(C)C)cc1` [Compound I-5, (S)-3-(4-acrylamidobenzamido)-1-(difluoromethyl)-N-(2-(dimethylamino)-1-phenylethyl)-6,6-dimethyl-4,6-dihydropyrrolo[3,4-c]pyrazole-5(1H)-carboxamide], 10 µM produced 81.4% inhibition in experiment [1] (Table 1). Further, the IC50 at CDK7: cyclin H and MNAT1 (setting [2]) is less than 100 nM.
On the same counts, the results for `C=CC(=O)Nc1ccc(C(=O)Nc2nn(C)c3c2CN(C(=O)N[C@H](CN(C)C)c2ccccc2)C3(C)C)nc1` [Compound I-8, (S)-3-(5-acrylamidopicolinamido)-N-(2-(dimethylamino)-1-phenylethyl)-1,6,6-trimethyl-4,6-dihydropyrrolo[3,4-c]pyrazole-5(1H)-carboxamide] are 50.6% and 100 to 1000 nM.
On the same counts, the results for `C=CC(=O)Nc1ccc(C(=O)Nc2nn(C(F)F)c3c2CN(C(=O)N[C@H](CN(C)C)c2ccccc2)C3(C)C)nc1` [Compound I-33, (S)-3-(5-acrylamidopicolinamido)-1-(difluoromethyl)-N-(2-(dimethylamino)-1-phenylethyl)-6,6-dimethyl-4,6-dihydropyrrolo[3,4-c]pyrazole-5(1H)-carboxamide] are 88.8% and less than 100 nM.
`C=CC(=O)Nc1ccc(C(=O)Nc2n[nH]c3c2CN(C(=O)N[C@H](CN(C)C)c2ccccc2)C3(C)C)cc1C(F)(F)F` [II-2] displayed an inhibition at 10 µM in experiment [1] (Table 2, comparator compounds) of 98.1%. On CDK7: cyclin H and MNAT1 (Table 2, comparator compounds), the half-maximal inhibitory concentration (IC50) is less than 100 nM.
